Data taken from patent US20170066717A1, “NEW PHENYLAZETIDINECARBOXYLATE OR -CARBOXAMIDE COMPOUNDS” (INVENTIVA, priority 2014, published 2017).
Counter-ions that a name gives are not always drawn.

Columns and labels:
NURR-1/RXRγ = molecular target: T1, NURR-1/RXRγ (Homo sapiens, UniProt P48443); experiment: Transactivation test, NURR-1-Gal4/RXRγ, luciferase reporter in Cos-7 cells; assay type: cell-based; conditions: for Emax: COS-7, induction level relative to reference XCT0135908 at 2×10^−5 M (=100%), read-out: hNurr1_RXRgFL Emax (%); for EC50: Cos-7 cells, NURR-1-Gal4/RXRγ, luciferase reporter, read-out: hNurr1_RXRgFL EC50; for hNurr1_RXRgFL Emax (%): induction level relative to reference XCT0135908 at 2×10^−5 M (=100%)
T1 construct: expressed in transfected cells; host or cells: Cos-7 cells
T1 sequence (P48443 whole entry, the tested form may be a part): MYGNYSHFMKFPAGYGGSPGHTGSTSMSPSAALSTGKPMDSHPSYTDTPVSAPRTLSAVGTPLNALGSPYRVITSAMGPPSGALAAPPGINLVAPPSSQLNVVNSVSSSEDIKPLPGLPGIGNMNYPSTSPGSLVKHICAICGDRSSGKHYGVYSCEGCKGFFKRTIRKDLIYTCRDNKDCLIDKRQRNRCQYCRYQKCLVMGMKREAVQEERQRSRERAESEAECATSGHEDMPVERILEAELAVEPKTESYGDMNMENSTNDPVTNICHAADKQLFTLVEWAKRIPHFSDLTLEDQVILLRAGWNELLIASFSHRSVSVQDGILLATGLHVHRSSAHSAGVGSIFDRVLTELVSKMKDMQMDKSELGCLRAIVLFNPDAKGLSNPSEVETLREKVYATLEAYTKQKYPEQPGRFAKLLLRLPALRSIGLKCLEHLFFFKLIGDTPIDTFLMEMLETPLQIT
T1 sequence (P43354 whole entry partner, the tested form may be a part): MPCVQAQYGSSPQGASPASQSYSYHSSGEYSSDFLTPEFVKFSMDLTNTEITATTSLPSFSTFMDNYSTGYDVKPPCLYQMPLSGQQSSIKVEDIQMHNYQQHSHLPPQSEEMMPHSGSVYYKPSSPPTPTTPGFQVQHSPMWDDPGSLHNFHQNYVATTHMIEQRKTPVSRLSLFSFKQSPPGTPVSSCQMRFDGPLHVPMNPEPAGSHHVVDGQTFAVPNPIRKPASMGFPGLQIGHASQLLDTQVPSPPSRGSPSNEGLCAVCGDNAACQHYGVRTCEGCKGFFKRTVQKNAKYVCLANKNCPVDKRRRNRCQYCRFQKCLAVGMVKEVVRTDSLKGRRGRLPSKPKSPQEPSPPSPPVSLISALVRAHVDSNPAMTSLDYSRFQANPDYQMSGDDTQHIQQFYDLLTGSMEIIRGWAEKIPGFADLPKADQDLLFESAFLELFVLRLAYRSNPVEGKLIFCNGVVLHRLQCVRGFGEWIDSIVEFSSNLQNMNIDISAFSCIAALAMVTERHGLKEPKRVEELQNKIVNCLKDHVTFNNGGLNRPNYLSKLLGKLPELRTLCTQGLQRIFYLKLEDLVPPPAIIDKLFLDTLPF
T1 sequence (P04386 1-147 partner limits assumed): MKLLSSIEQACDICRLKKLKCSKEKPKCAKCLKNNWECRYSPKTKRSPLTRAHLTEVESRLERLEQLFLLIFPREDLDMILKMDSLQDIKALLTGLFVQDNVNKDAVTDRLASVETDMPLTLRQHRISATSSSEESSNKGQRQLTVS

NURR-1/RXRα = molecular target: T2, NURR-1/RXRα (Homo sapiens, UniProt P19793); experiment: Transactivation test, NURR-1-Gal4/RXRα, luciferase reporter in Cos-7 cells; assay type: cell-based; conditions: for Emax: COS-7, induction level relative to reference XCT0135908 at 2×10^−5 M (=100%), read-out: hNurr1_RXRaFL Emax (%); for EC50: Cos-7 cells, NURR-1-Gal4/RXRα, luciferase reporter, read-out: hNurr1_RXRaFL EC50; for hNurr1_RXRaFL Emax (%): induction level relative to reference XCT0135908 at 2×10^−5 M (=100%)
T2 construct: expressed in transfected cells; host or cells: Cos-7 cells
T2 sequence (P19793 whole entry, the tested form may be a part): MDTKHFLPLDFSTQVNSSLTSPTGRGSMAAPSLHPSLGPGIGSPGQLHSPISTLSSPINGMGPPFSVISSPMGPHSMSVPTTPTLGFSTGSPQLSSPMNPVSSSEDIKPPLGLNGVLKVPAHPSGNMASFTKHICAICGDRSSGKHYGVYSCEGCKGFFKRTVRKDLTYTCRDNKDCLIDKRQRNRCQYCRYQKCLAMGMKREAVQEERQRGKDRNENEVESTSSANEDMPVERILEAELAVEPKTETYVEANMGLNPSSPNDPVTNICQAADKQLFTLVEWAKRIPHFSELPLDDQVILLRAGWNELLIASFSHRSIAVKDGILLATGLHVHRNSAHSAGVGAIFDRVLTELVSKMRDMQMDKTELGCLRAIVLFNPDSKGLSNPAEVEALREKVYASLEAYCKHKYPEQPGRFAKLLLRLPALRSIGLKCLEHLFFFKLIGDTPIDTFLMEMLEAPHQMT
T2 sequence (P43354 whole entry partner, the tested form may be a part): as the sequence (P43354 whole entry partner, the tested form may be a part) above
T2 sequence (P04386 1-147 partner limits assumed): as the sequence (P04386 1-147 partner limits assumed) above

Compound	melting point	Emax (NURR-1/RXRα)	EC50 (NURR-1/RXRα)	further results
CN1CC2(CCC2)Oc2cc(C(C)(C)C)cc(-c3cccc(N4CC(C(=O)O)C4)c3)c21 (as salt: ammonium) [Example 213, tert-butylammonium 1-[3-(7-tert-butyl-4-methyl-spiro[3H-1,4-benzoxazine-2,1′-cyclobutane]-5-yl)phenyl]azetidine-3-carboxylate]	170 to 178 °C			
CC1(C)CN(CC(F)(F)F)c2c(cc(C(F)(F)F)cc2-c2cccc(N3CC(C(=O)O)C3)c2)O1 (as salt: ammonium) [Example 215, tert-butylammonium 1-[3-[2,2-dimethyl-4 (2,2,2-trifluoromethyl)-7-(trifluoromethyl)-3H-1,4-benzoxazin-5-yl]phenyl]azetidine-3-carboxylate]	148 to 154 °C			
CC(C)Cc1ccc2c(c1)OC(C)(C)CN2c1cccc(N2CC(C(=O)O)C2)c1 (as salt: ammonium) [Example 231, tert-butylammonium 1-[3-(7-isobutyl-2,2-dimethyl-3H-1,4-benzoxazin-4yl)phenyl]azetidine-3-carboxylate]	120 to 121 °C			
CC(C)c1ccc2c(c1)CC(C)(C)CN2c1cccc(N2CC(C(=O)O)C2)c1 (as salt: ammonium) [Example 245, tert-butylammonium 1-[3-(6-isopropyl-3,3-dimethyl-2,4-dihydroquinolin-1-yl)phenyl]azetidine-3-carboxylate]	165 to 177 °C			
CC1(C)Oc2cc(C#N)ccc2N(c2cccc(N3CC(C(=O)O)C3)c2)C1=O (as salt: ammonium) [Example 254, tert-butylammonium 1-[3-(7-cyano-2,2-dimethyl-3-oxo-1,4-benzoxazin-4-yl)phenyl]azetidine-3-carboxylate]	204 to 211 °C			
O=C(O)C1CN(c2cccc(N3CC4(CCCC4)c4cc(Cl)ccc43)c2)C1 (as salt: ammonium) [Example 257, tert-butylammonium 1-[3-(5′-chlorospiro[cyclopentane-1,3′-indolin]-1′-yl)phenyl]azetidine-3-carboxyate]	131 to 133 °C			
CCC1(CC)C=C(c2cccc(N3CC(C(=O)O)C3)c2)c2ccc(C(F)(F)F)cc2O1 (as salt: ammonium) [Example 265]	147 to 152 °C			
CC1(C)CC(c2cccc(N3CC(C(=O)O)C3)c2)c2ccc(C(F)(F)F)cc2O1 (centres unmarked) (as salt: ammonium) [Example 270, tert-butylammonium 1-[3-[2,2-dimethyl-7-(trifluoromethyl)chroman-4-yl]phenyl]azetidine-3-carboxylate]	116 to 122 °C			
CCCc1ccc(C(C)C)cc1-c1cccc(N2CC(C(=O)O)C2)c1 (as salt: salt) [Example 195, piperazin-1-ium-1-[3-(5-isopropyl-2-propylphenyl)phenyl]azetidine-3-carboxylate]	109 °C			
CC1(C)CN(c2cccc(N3CC(C(=O)O)C3)c2)c2ccc(Br)cc2O1 (as salt: sodium) [Example 222, sodium 1-[3-(7-bromo-2,2-dimethyl-3H-1,4-benzoxazin-4-yl)phenyl]azetidine-3-carbxoylate]	140 °C			
O=C(O)C1CN(c2cccc(N3CCOc4cc(C(F)(F)F)ncc43)c2)C1 (as salt: sodium) [Example 240, sodium 1-[3-[7-(trifluoromethyl)-2,3-dihydropurido[4,3][1,4]oxazin-4-yl]phenyl]azetidine-3-carboxylate]	49 to 63 °C			
CC1COc2cc(C(F)(F)F)ccc2N1c1cccc(N2CC(C(=O)O)C2)c1 (single isomer, unassigned; isomer 1) [Example 124-1, 1-[3-[3-methyl-7-(trifluoromethyl)-2,3-dihydro-1,4-benzoxazin-4-yl]phenyl]azetidine-3-carboxylic acid, isomer 1]	61 °C	107%	118 nM	Emax (NURR-1/RXRγ): 101%; EC50 (NURR-1/RXRγ): 211 nM
CC1(C)CCC2C(C1)c1cc(C(F)(F)F)ccc1N2c1cccc(N2CC(C(=O)O)C2)c1 (single isomer, unassigned; isomer 1) [Example 145-1, 1-[3-[3,3-dimethyl-6-(trifluoromethyl)-2,4,4a,9a-tetrahydro-1H-carbazol-9-yl]phenyl]azetidine-3-carboxylic acid (isomer 1)]	84 to 91 °C	82%	37 nM	Emax (NURR-1/RXRγ): 90%; EC50 (NURR-1/RXRγ): 103 nM
CC1(C)CCC2C(C1)c1cc(C(F)(F)F)ccc1N2c1cccc(N2CC(C(=O)O)C2)c1 (single isomer, unassigned; isomer 2) [Example 145-2, 1-[3-[3,3-dimethyl-6-(trifluoromethyl)-2,4,4a,9a-teterahydro-1H-carbazol-9-yl]phenyl]azetidine-3-carboxylic acid (isomer 2)]	82 to 94 °C		2 nM	EC50 (NURR-1/RXRγ): < 1 nM; hNurr1_RXRgFL Emax (%) (NURR-1/RXRγ): 99%; hNurr1_RXRaFL Emax (%) (NURR-1/RXRα): 86%
CC(C)CC1Oc2cc(C(F)(F)F)ccc2N(c2cccc(N3CC(C(=O)O)C3)c2)C1=O (single isomer, unassigned; isomer 2) [Example 246-2, 1-[3-[2-isobutyl-3-oxo-7-(trofluormethyl)-1,4-benzoxazin-4-yl]phenyl]azetidine-3-carboxylic acid, isomer 2]	57 to 70 °C		73 nM	EC50 (NURR-1/RXRγ): 126 nM; hNurr1_RXRgFL Emax (%) (NURR-1/RXRγ): 46%; hNurr1_RXRaFL Emax (%) (NURR-1/RXRα): 58%
O=C(O)C1CN(c2cccc(-c3cc(C(F)(F)F)cc4c3NCCO4)c2)C1 [Example 65, 1-[3-[7-(trifluoromethyl)-3,4-dihydro-2H-1,4-benzoxazin-5-yl]phenyl]azetidine-3-carboxylic acid]	76 to 79 °C	99%	10 nM	
CN(C)C(=O)c1cn(-c2cccc(N3CC(C(=O)O)C3)c2)c2ccc(C(F)(F)F)cc12 [Example 131]	230 to 234 °C	55%	2920 nM	
CCS(=O)(=O)c1cn(-c2cccc(N3CC(C(=O)O)C3)c2)c2ccc(C(F)(F)F)cc12 [Example 138, 1-[3-[3-(ethylsulfonyl)-5-(trifluoromethyl)indol-1-yl]phenyl]azetidine-3-carboxylic acid]	161 to 168 °C	116%	134 nM	
CC(C)(C)c1cc2c(c(-c3cccc(N4CC(C(=O)[O-])C4)c3)c1)NCC1(CCC1)O2.[Na+] [Example 205, sodium 1-[3-(7-tert-butylspiro[3,4-dihydro-1,4-benzoxazine-2,1′-cyclobutane]-5-yl)phenyl]azetidine-3-carboxylate]	190 to 200 °C	115%	4 nM	
CC(C)c1cc2c(c(-c3cccc(N4CC(C(=O)[O-])C4)c3)c1)NCC(C)(C)C2.[Na+] [Example 208, sodium 1-[3-(6-isopropyl-3,3-dimethyl-2,4-dihydro-1H-quinoline-8-yl)phenyl]azetidine-3-carboxylate]	196 to 203 °C	109%	11 nM	
Cc1cc2c(c(-c3cccc(N4CC(C(=O)[O-])C4)c3)c1)NCCC(C)(C)O2.[Na+] [Example 209, sodium 1-[3-(2,2,8-trimethyl4,5-dihydro-3H-1,5-benzoxazepin-6-yl)phenyl]azetidine-3-carboxylate]	145 to 154 °C	95%	212 nM	
CC1(C)CCNc2c(cc(C(C)(C)C)cc2-c2cccc(N3CC(C(=O)[O-])C3)c2)O1.[Na+] [Example 210, sodium 1-[3-(8-tert-butyl-2,2-dimethyl-4,5-dihydro-3H-1,5-benzoxazepin-6-yl)phenyl]azetidine-3-carboxylate]	169 to 176 °C	88%	75 nM	
CN1CC(C)(C)Oc2cc(C(C)(C)C)cc(-c3cccc(N4CC(C(=O)[O-])C4)c3)c21.[Na+] [Example 211, sodium 1-[3-(7-tert-butyl-2,2,4-trimethyl-3H-1,4-benzoxazin-5-yl)phenyl]azetidine-3-carbxoylate]	245 to 246 °C	94%	0.91 nM	
CC1(C)Oc2cc(C#N)ccc2N(c2cccc(N3CC(C(=O)O)C3)c2)C1=O [Example 253, 1-[3-(7-cyano-2,2-dimethyl-3-oxo-1,4-benzoxazin-4-yl)phenyl]azetidine-3-carboxylic acid]	88 to 104 °C			
CC1(C)C=C(c2cccc(N3CC(C(=O)[O-])C3)c2)c2ccc(C(C)(C)C)cc2O1.[Na+] [Example 267, sodium 1-[3-(7-tert-butyl-2,2-dimethylchromen-4-yl)phenyl]azetidine-3-carboxylate]	212 to 233 °C	115%	13 nM	
O=C([O-])C1CN(c2cccc(C3=CC4(CCC4)Oc4cc(C(F)(F)F)ccc43)c2)C1.[Na+] [Example 268, sodium 1-[3-[7-(trifluoromethyl)spiro[chromene-2,1′-cyclobutane]-4-yl]phenyl]azetidine-3-carboxylate]	177 to 191 °C	107%	~1 nM	
CC1(C)N=C(c2cccc(N3CC(C(=O)[O-])C3)c2)c2ccc(C(F)(F)F)cc2O1.[Na+] [Example 271, sodium 1-[3-[2,2-dimethyl-7-(trifluoromethyl)-1,3-benzoxazin-4-yl]phenyl]azetidine-3-carboxylate]	141 to 146 °C	114%	26 nM	
